This is an account of results in patent publication US8895733B2 (Novartis AG, priority 2010, dated 2014).

SMILES strings stand for the structures. Where two headings read alike, the source gives them in different places.

For this assay, the target named is T1, Nav 1.7 (Homo sapiens, UniProt Q15858).
T1 construct: expressed in transfected cells
Briefly: Whole-cell voltage clamp electrophysiology, automated patch clamp (marker c in Table of Examples). The class given is cell-based. The conditions noted are these: read-out: Nav 1.7 activity. Summed up: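 Human NaV1.7 currents were recorded by whole-cell automated patch clamp, on IonWorks Quattro or another automated platform, typically in perforated-patch configuration. The stimulus protocol was designed to probe block mainly of the inactivated state, with a typical sweep stepping from about −65 mV holding to −10 mV, then −100 mV.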
A general note: The patch-clamp technique gives a direct electrical read-out from membranes.

Where [1] appears, read: marker c = Automated patch clamp data.
The mark [2] stands for this setting: marker c: Automated patch clamp data.

T1 sequence (Q15858 whole entry): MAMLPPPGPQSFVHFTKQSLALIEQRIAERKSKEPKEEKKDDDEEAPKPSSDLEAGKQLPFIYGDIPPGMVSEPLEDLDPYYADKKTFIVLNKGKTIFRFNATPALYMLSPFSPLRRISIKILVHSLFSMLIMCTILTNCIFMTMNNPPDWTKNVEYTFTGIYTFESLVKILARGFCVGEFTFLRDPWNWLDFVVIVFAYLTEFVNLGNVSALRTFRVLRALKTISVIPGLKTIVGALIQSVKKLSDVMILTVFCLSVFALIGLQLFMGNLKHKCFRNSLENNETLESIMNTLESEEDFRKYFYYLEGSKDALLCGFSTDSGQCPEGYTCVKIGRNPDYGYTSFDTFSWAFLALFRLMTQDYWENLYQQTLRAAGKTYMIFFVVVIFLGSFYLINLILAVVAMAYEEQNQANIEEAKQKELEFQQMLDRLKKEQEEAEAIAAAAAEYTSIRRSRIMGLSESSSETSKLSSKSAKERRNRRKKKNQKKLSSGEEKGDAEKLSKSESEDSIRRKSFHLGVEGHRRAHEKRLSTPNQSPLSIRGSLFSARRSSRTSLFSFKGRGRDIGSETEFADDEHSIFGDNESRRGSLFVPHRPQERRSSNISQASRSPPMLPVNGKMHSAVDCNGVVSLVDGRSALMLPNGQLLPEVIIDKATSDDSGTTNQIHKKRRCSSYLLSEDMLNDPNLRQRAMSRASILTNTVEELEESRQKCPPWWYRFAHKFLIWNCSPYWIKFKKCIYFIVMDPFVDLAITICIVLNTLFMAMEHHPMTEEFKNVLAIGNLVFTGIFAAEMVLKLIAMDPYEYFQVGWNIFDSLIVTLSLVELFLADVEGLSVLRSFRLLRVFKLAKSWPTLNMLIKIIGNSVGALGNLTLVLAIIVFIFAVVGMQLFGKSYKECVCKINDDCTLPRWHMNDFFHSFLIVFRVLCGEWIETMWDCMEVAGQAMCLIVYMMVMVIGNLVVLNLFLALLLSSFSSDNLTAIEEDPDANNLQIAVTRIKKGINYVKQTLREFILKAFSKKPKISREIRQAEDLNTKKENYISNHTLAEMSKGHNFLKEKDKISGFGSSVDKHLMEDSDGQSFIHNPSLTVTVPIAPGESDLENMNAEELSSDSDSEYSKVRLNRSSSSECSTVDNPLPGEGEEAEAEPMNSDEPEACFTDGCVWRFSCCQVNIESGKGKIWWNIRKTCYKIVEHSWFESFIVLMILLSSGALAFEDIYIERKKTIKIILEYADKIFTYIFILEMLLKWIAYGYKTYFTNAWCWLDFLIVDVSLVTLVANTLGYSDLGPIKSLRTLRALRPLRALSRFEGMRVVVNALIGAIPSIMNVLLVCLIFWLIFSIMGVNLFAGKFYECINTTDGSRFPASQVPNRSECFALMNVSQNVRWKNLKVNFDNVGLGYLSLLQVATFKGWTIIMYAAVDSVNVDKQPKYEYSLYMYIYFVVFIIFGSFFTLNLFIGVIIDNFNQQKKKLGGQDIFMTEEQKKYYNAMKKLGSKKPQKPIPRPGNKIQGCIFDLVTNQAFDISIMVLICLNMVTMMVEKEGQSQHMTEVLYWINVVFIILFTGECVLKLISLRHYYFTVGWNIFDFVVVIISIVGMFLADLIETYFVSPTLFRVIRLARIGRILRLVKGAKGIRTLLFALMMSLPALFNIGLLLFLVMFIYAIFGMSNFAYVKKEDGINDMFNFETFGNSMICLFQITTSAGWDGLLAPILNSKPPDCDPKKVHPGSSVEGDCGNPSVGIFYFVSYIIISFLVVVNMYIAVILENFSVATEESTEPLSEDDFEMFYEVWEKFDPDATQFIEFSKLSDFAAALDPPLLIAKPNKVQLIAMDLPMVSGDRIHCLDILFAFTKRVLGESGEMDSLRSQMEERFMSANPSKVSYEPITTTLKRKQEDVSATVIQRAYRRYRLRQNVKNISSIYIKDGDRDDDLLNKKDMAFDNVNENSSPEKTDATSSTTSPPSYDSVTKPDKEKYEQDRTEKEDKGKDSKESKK

Take `Nc1nc(Nc2ccc(F)c(Cl)c2)nc(-c2noc(-c3ccc(OCC(F)(F)F)nc3)n2)n1` [Example 413, 2-N-(3-Chloro-4-fluorophenyl)-6-{5-[6-(2,2,2-trifluoroethoxy)pyridin-3-yl]-1,2,4-oxadiazol-3-yl}-1,3,5-triazine-2,4-diamine]: the IC50 under setting [1] worked out at 9020 nM.
For `CN(c1ccccc1)c1nc(N)nc(-c2noc(C3C[C@H]4CC[C@@H](C3)N4CCC(F)(F)F)n2)n1` (mixture of isomers) [Example 145, N-Methyl-N-phenyl-6-{5-[(1R,3R,5S)-8-(3,3,3-trifluoro-propyl)-8-aza-bicyclo[3.2.1]oct-3-yl]-[1,2,4]oxadiazol-3-yl}-[1,3,5]triazine-2,4-diamine], the IC50 under setting [2] was determined as 1140 nM.
With `Cc1ccc(-c2nc(-c3nc(N)nc(N(C)c4ccccc4F)n3)no2)o1` [Example 91, N-(2-Fluoro-phenyl)-N-methyl-6-[5-(5-methyl-furan-2-yl)-[1,2,4]oxadiazol-3-yl]-[1,3,5]triazine-2,4-diamine], the IC50 under setting [2] is 547 nM.
For `CN(c1ccccc1)c1nc(N)nc(-c2noc(C3CN(CC(F)(F)F)C3)n2)n1` [Example 314, 2-N-Methyl-2-N-phenyl-6-{5-[1-(2,2,2-trifluoroethyl)azetidin-3-yl]-1,2,4-oxadiazol-3-yl}-1,3,5-triazine-2,4-diamine], the IC50 under setting [1] was 3070 nM.
For `CN(c1ccccc1)c1nc(N)nc(-c2noc(-c3ccc([S+]([O-])CCC(F)(F)F)nc3)n2)n1` (stereo not drawn) [Example 455, 2-N-methyl-2-N-phenyl-6-(5-{6-[(3,3,3-trifluoropropane)sulfinyl]pyridin-3-yl}-1,2,4-oxadiazol-3-yl)-1,3,5-triazine-2,4-diamine], the IC50 under setting [1] stood at 57 nM.
Take `CN1CCN(C(=O)c2nc(-c3nc(N)nc(N(C)c4ccccc4)n3)no2)CC1` [Example 344, 2-N-methyl-6-{5-[(4-methylpiperazin-1-yl)carbonyl]-1,2,4-oxadiazol-3-yl}-2-N-phenyl-1,3,5-triazine-2,4-diamine]: under setting [1], the IC50 came to 5760 nM.
Same read-out and setting: with `Nc1nc(Nc2ccccc2)nc(-c2noc(-c3ccc(CCC(F)(F)F)nc3)n2)n1` [Example 319, 2-N-phenyl-6-{5-[6-(3,3,3-trifluoropropyl)pyridin-3-yl]-1,2,4-oxadiazol-3-yl}-1,3,5-triazine-2,4-diamine] the figure was 150 nM; with `CN(c1ccccc1)c1nc(N)nc(-c2noc(N3CC(OCC(F)(F)F)C3)n2)n1` [Example 494, 2-N-methyl-2-N-phenyl-6-{5-[3-(2,2,2-trifluoroethoxy)azetidin-1-yl]-1,2,4-oxadiazol-3-yl}-1,3,5-triazine-2,4-diamine], 1980 nM; with `Nc1nc(Nc2ccccc2)nc(-c2noc(C(=O)NC3CCC3)n2)n1` [Example 228, 3-[4-amino-6-(phenylamino)-1,3,5-triazin-2-yl]-N-cyclobutyl-1,2,4-oxadiazole-5-carboxamide], 401 nM.
Still for that read-out and setting: the result for `CN(c1ccccc1)c1nc(N)nc(-c2noc(N3CCC(COCCC(F)(F)F)CC3)n2)n1` [Example 501, 2-N-methyl-2-N-phenyl-6-(5-{4-[(3,3,3-trifluoropropoxy)methyl]piperidin-1-yl}-1,2,4-oxadiazol-3-yl)-1,3,5-triazine-2,4-diamine] reads 344 nM; that for `CN(c1ccccc1)c1nc(N)nc(-c2noc(N3CC[C@@H](Oc4ccccc4)C3)n2)n1` [Example 434, 2-N-methyl-6-{5-[(3R)-3-phenoxypyrrolidin-1-yl]-1,2,4-oxadiazol-3-yl}-2-N-phenyl-1,3,5-triazine-2,4-diamine], 140 nM.
The same measure, in the same setting: the result for `CN(c1nc(N)nc(-c2noc(-c3ncccc3F)n2)n1)c1ccccc1F` [Example 475, 2-N-(2-fluorophenyl)-6-[5-(3-fluoropyridin-2-yl)-1,2,4-oxadiazol-3-yl]-2-N-methyl-1,3,5-triazine-2,4-diamine] reads 69 nM; that for `COc1ccccc1Cc1nc(-c2nc(N)nc(N(C)c3ccccc3)n2)no1` [Example 199, 6-{5-[(2-methoxyphenyl)methyl]-1,2,4-oxadiazol-3-yl}-2-N-methyl-2-N-phenyl-1,3,5-triazine-2,4-diamine], 8730 nM.
For the molecule `Nc1nc(Nc2ccccc2F)nc(-c2noc(-c3ccc(OCC4CC4)nc3)n2)n1` [Example 138, 6-{5-[6-(cyclopropylmethoxy)pyridin-3-yl]-1,2,4-oxadiazol-3-yl}-2-N-(2-fluorophenyl)-1,3,5-thazine-2,4-diamine], the IC50 under setting [2] is 106 nM.
Regarding `CN(c1ccccc1)c1nc(N)nc(-c2noc(-c3ncccc3C(=O)NCC(F)(F)F)n2)n1` [Example 381, 2-(3-{4-amino-6-[methyl(phenyl)amino]-1,3,5-triazin-2-yl}-1,2,4-oxadiazol-5-yl)-N-(2,2,2-trifluoroethyl)pyridine-3-carboxamide], under setting [1], the IC50 was 4930 nM.
`Nc1nc(Nc2cccc(F)c2)nc(-c2noc(C(=O)N[C@@H]3CCOC3)n2)n1` [Example 233, 3-{4-amino-6-[(3-fluorophenyl)amino]-1,3,5-triazin-2-yl}-N-[(3R)-oxolan-3-yl]-1,2,4-oxadiazole-5-carboxamide]: the IC50 under setting [1] was found to be 5660 nM.
`CN(c1ccccc1)c1nc(N)nc(-c2noc(C(=O)N3CCCCC3)n2)n1` [Example 277, 2-N-methyl-2-N-phenyl-6-{5-[(piperidin-1-yl)carbonyl]-1,2,4-oxadiazol-3-yl}-1,3,5-triazine-2,4-diamine]: under setting [1], the IC50 was 3260 nM.
Same read-out and setting: with `COC[C@H]1CCCN1c1nc(-c2nc(N)nc(N(C)c3ccccc3)n2)no1` [Example 444, 6-{5-[(2R)-2-(methoxymethyl)pyrrolidin-1-yl]-1,2,4-oxadiazol-3-yl}-2-N-methyl-2-N-phenyl-1,3,5-triazine-2,4-diamine] the figure was 8000 nM; with `CN(c1ccccc1)c1nc(N)nc(-c2noc(C3CCCCC3)n2)n1` [Example 266, 6-(5-cyclohexyl-1,2,4-oxadiazol-3-yl)-2-N-methyl-2-N-phenyl-1,3,5-triazine-2,4-diamine], 4370 nM.
Regarding `CN(c1ccccc1)c1nc(N)nc(-c2noc(-c3ccc(COC4CCOC4)nc3)n2)n1` (stereo not drawn) [Example 144, N-Methyl-N-phenyl-6-{5-[6-(tetrahydro-furan-3-yloxymethyl)-pyridin-3-yl]-[1,2,4]oxadiazol-3-yl}-[1,3,5]triazine-2,4-diamine], the IC50 under setting [2] stood at 1720 nM.
On the same count and under the same terms, with `Cc1cccc(-c2nc(-c3nc(N)nc(N(C)c4ccccc4)n3)no2)c1` [Example 28, N-Methyl-N-phenyl-6-(5-m-tolyl-[1,2,4]oxadiazol-3-yl)-[1,3,5]triazine-2,4-diamine] the figure was 955 nM; with `CN(c1ccccc1)c1nc(N)nc(-c2noc(Cc3ccccc3)n2)n1` [Example 31, 6-(5-Benzyl-[1,2,4]oxadiazol-3-yl)-N-methyl-N-phenyl-[1,3,5]triazine-2,4-diamine], 363 nM.
`CN(c1ccccc1)c1nc(N)nc(-c2noc(C3CN(C(=O)OC(C)(C)C)C3)n2)n1` [Example 382, tert-butyl 3-(3-{4-amino-6-[methyl(phenyl]amino]-1,3,5-triazin-2-yl}-1,2,4-oxadiazol-5-yl)azetidine-1-carboxylate]: the IC50 under setting [1] was found to be 4810 nM.
On to `CC(C)CS(=O)(=O)N1CCC[C@@H]1c1nc(-c2nc(N)nc(N(C)c3ccccc3)n2)no1` [Example 447, 2-N-methyl-6-{5-[(2R)-1-[(2-methylpropane)sulfonyl]pyrrolidin-2-yl]-1,2,4-oxadiazol-3-yl}-2-N-phenyl-1,3,5-triazine-2,4-diamine], for which the IC50 under setting [1] turned out to be 1090 nM.
